Drawing on US20250186433A1, “ACSS2 INHIBITORS AND METHODS OF USE THEREOF” (EpiVario, Inc., priority 2017, published 2025), this text covers IC50 for 17 compounds.

In the assay the target is ACSS2 (Homo sapiens, UniProt Q9NR19). Nature of the assay: biochemical.

The term IC50 denotes the concentration at which inhibition is half-maximal.
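Further: Pyrophosphatase-coupled ACSS2 enzyme assay, 10 nM protein incubated 90 min at 37 °C with ATP, CoA and acetate, released phosphate read by Biomol Green absorbance at 620 nm.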

ACSS2, sequence (Q9NR19 whole entry): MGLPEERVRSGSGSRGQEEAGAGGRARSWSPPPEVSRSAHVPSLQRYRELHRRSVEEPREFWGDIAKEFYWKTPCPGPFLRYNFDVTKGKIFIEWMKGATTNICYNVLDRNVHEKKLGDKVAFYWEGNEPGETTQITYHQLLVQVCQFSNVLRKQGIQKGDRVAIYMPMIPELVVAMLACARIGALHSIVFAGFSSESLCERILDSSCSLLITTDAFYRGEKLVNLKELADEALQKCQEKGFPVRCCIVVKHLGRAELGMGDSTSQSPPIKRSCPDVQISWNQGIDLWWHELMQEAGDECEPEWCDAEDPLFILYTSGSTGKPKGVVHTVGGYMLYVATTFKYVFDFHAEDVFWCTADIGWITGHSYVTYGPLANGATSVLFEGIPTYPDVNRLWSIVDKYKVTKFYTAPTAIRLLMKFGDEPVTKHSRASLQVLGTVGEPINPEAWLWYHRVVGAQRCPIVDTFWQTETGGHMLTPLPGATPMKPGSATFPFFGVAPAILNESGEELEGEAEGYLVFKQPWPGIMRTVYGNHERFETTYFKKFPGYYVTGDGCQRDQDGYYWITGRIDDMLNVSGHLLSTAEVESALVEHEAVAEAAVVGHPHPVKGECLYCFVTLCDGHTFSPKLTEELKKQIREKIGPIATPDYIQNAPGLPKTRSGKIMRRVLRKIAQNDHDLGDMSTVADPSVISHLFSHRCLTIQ
Method: The assay is based on a coupling reaction with Pyrophosphatase: ACSS2 is converting ATP+CoA+Acetate=>AMP+pyrophosphate+Acetyl-CoA (Ac-CoA). Pyrophosphatase converts pyrophosphate, a product of the ACSS2 reaction, to phosphate which can be detected by measuring the absorbance at 620 nm after incubation with the Biomol green reagent (Enzo life Science, BML-AK111).
At the end of the reaction, Biomol Green was added for 30 minutes at RT and the activity was measured by reading the absorbance at 620 nm.

`CCC(F)(F)c1cccc(NC(=O)C2C(=O)N(c3cccc4occc34)N=C2C)c1` (centres unmarked) [compound 492, 1-(benzofuran-4-yl)-N-(3-(1,1-difluoropropyl)phenyl)-3-methyl-5-oxo-4,5-dihydro-1H-pyrazole-4-carboxamide] returned an IC50 of 0.01 to 6 nM.
For the compound `CCC(F)(F)c1cccc(NC(=O)C2C(=O)N(c3ccc(OC)cc3F)N=C2C)c1` (centres unmarked) [compound 505, N-(3-(1,1-difluoropropyl)phenyl)-1-(2-fluoro-4-methoxyphenyl)-3-methyl-5-oxo-4,5-dihydro-1H-pyrazole-4-carboxamide], the IC50 was in the range of 0.01 to 6 nM.
Turning to `CC1=NN(c2ccc(OC(F)F)cc2)C(=O)C1C(=O)Nc1cccc(C(F)=C(C)C)c1` (centres unmarked) [compound 496, 1-[4-(difluoromethoxy)phenyl]-N-[3-(1-fluoro-2-methyl-prop-1-enyl)phenyl]-3-methyl-5-oxo-4H-pyrazole-4-carboxamide], the IC50 lay in the range of 6 to 100 nM.
In turn, `CC1=NN(c2cc(Br)cc(I)c2)C(=O)C1C(=O)Nc1cccc(C(C)(F)F)c1` (centres unmarked) [compound 468] gave an IC50 of 0.01 to 6 nM.
`CC1=NN(c2ccc(OC(F)F)cc2)C(=O)C1C(=O)Nc1cncc(C#N)c1` (centres unmarked) [compound 503, N-(5-cyanopyridin-3-yl)-1-(4-(difluoromethoxy)phenyl)-3-methyl-5-oxo-4,5-dihydro-1H-pyrazole-4-carboxamide] gave an IC50 of 100 to 1000 nM.
In turn, `COc1cccc(Cc2cc(-c3cccnc3)cc(N3N=C(C)C(C(=O)Nc4cccc(C(C)(F)F)c4)C3=O)c2)c1` (centres unmarked) [compound 461] registered an IC50 of 6 to 100 nM.
For `CCC(F)(F)c1cccc(NC(=O)C2C(=O)N(c3ccc4ccn(C(=O)c5cccc(O)c5)c4c3)N=C2C)c1` (centres unmarked) [compound 493, N-(3-(1,1-difluoropropyl)phenyl)-1-(1-(3-hydroxybenzoyl)-1H-indol-6-yl)-3-methyl-5-oxo-4,5-dihydro-1H-pyrazole-4-carboxamide], the IC50 lay in the range of 0.01 to 6 nM.
The result for `CCC(F)(F)c1cccc(NC(=O)C2C(=O)N(c3ccc4cccnc4c3)N=C2C)c1` (centres unmarked) [compound 474, N-(3-(1,1-difluoropropyl)phenyl)-3-methyl-5-oxo-1-(quinolin-7-yl)-4,5-dihydro-1H-pyrazole-4-carboxamide] reads 0.01 to 6 nM; that for `CCC(F)(F)c1cccc(NC(=O)C2C(=O)N(c3ccc4ccn(-c5ccccc5)c4c3)N=C2C)c1` (centres unmarked) [compound 472, N-[3-(1,1-difluoropropyl)phenyl]-3-methyl-5-oxo-1-(1-phenylindol-6-yl)-4H-pyrazole-4-carboxamide], 0.01 to 6 nM.
The result for `CCC(F)(F)c1cccc(NC(=O)C2C(=O)N(c3ccc4ccnnc4c3)N=C2C)c1` (centres unmarked) [compound 524, 1-(cinnolin-7-yl)-N-(3-(1,1-difluoropropyl)phenyl)-3-methyl-5-oxo-4,5-dihydro-1H-pyrazole-4-carboxamide] reads 6 to 100 nM; that for `CCC(F)(F)c1cccc(NC(=O)C2C(=O)N(c3ccc(OC)c(-c4cc(C)ccn4)c3)N=C2C)c1` (centres unmarked) [compound 537, N-(3-(1,1-difluoropropyl)phenyl)-1-(4-methoxy-3-(4-methylpyridin-2-yl)phenyl)-3-methyl-5-oxo-4,5-dihydro-1H-pyrazole-4-carboxamide], 0.01 to 6 nM; that for `CCC(F)(F)c1cncc(NC(=O)C2C(=O)N(c3ccc(OC(F)F)cc3)N=C2C)c1` (centres unmarked) [compound 511, 1-(4-(difluoromethoxy)phenyl)-N-(5-(1,1-difluoropropyl)pyridin-3-yl)-3-methyl-5-oxo-4,5-dihydro-1H-pyrazole-4-carboxamide], 0.01 to 6 nM.
As for `CCC(F)(F)c1cccc(NC(=O)C2C(=O)N(c3ccc4cn[nH]c4c3)N=C2C)c1` (centres unmarked) [compound 499, N-[3-(1,1-difluoropropyl)phenyl]-1-(1H-indazol-6-yl)-3-methyl-5-oxo-4H-pyrazole-4-carboxamide], the IC50 lay in the range of 0.01 to 6 nM.
On to `CC1=NN(c2ccc(OC(F)F)cc2)C(=O)C1C(=O)Nc1cccc(C(F)(F)C2CC2)c1` (centres unmarked) [compound 481, N-(3-(cyclopropyldifluoromethyl)phenyl)-1-(4-(difluoromethoxy)phenyl)-3-methyl-5-oxo-4,5-dihydro-1H-pyrazole-4-carboxamide], for which the half-maximal inhibitory concentration (IC50) is 0.01 to 6 nM.
The result for `CCC(F)(F)c1cccc(NC(=O)C2C(=O)N(c3ccc4ccn(C(=O)c5cccc(C)c5)c4c3)N=C2C)c1` (centres unmarked) [compound 483, N-[3-(1,1-difluoropropyl)phenyl]-3-methyl-1-[1-(3-methylbenzoyl)indol-6-yl]-5-oxo-4H-pyrazole-4-carboxamide] reads 6 to 100 nM; that for `CCC(F)(F)c1cccc(NC(=O)C2C(=O)N(c3ccc4cc(C)n(C)c4c3)N=C2C)c1` (centres unmarked) [compound 502, N-[3-(1,1-difluoropropyl)phenyl]-1-(1,2-dimethylindol-6-yl)-3-methyl-5-oxo-4H-pyrazole-4-carboxamide], 0.01 to 6 nM; that for `CC(F)(F)c1cccc(NC(=O)C2C(=O)N(c3ccc(OC(F)F)cc3)N=C2CS)c1` (centres unmarked) [compound 339], 100 to 1000 nM.
